Reference: patent US11807644B2 (PMV Pharmaceuticals, Inc., priority 2020, dated 2023)

Biological target: T1, recombinant His-tag Y220C p53 DBD protein (Homo sapiens, UniProt P04637, Y220C)
T1 construct: recombinant His-tag Y220C p53 DBD protein (amino acids #˜94-312)
Test: In vitro DNA binding activity assay (TR-FRET): binding of His-tag Y220C p53 DBD to biotin-labeled consensus DNA
Type: biochemical
Details: for SC150 (μM): concentration to increase DNA binding by […], incubated at either 27° C. or 29° C. for 60 min; for Y220C SC150 (μM): SC150 = concentration to increase DNA binding by […], His-tag Y220C p53 DBD, biotin-labeled consensus DNA

SMILES	SC150 (μM)	Y220C SC150 (μM)
COCC(O)CN1CCC(Nc2cccc3c2cc(-c2ccc4c[nH]nc4c2)n3CC(F)(F)F)CC1 (centres unmarked) [Compound 48A, 1-(4-{[2-(2H-indazol-6-yl)-1-(2,2,2-trifluoroethyl)-1H-indol-4-yl]amino}piperidin-1-yl)-3-methoxypropan-2-ol]	+++ (+++ = 5 μM ≤ SC150 < 10 μM)	–
CN1CC[C@H](Nc2cccc3c2cc(-c2nnc(CNC(=O)C4CC4)s2)n3CC(F)(F)F)[C@H](F)C1 [Compound 48B, N-{[5-(4-{[(3R,4S)-3-fluoro-1-methylpiperidin-4-yl]amino}-1-(2,2,2-trifluoroethyl)-1H-indol-2-yl)-1,3,4-thiadiazol-2-yl]methyl}cyclopropanecarboxamide]	–	* (* = 0 μM ≤ SC150 < 0.1 μM)
CN1CCC(Nc2cccc3c2cc(-c2nnc(CNC(=O)c4ccncc4)s2)n3CC(F)(F)F)CC1 [Compound 49B, N-[(5-{4-[(1-methylpiperidin-4-yl)amino]-1-(2,2,2-trifluoroethyl)-1H-indol-2-yl}-1,3,4-thiadiazol-2-yl)methyl]pyridine-4-carboxamide]	–	** (** = 0.1 μM ≤ SC150 < 0.5 μM)
COCC(O)CN1CCC(Nc2cccc3c2cc(-c2cccc(NC(C)=O)c2)n3CC(F)(F)F)CC1 (centres unmarked) [Compound 51A, N-[3-(4-{[1-(2-hydroxy-3-methoxypropyl)piperidin-4-yl]amino}-1-(2,2,2-trifluoroethyl)-1H-indol-2-yl)phenyl]acetamide]	++++ (++++ = 10 μM ≤ SC150 < 35 μM)	–
CN1CCC(Nc2cccc3c2cc(-c2nnc(CNC(=O)c4cccc(F)c4)s2)n3CC(F)(F)F)CC1 [Compound 51B, 3-fluoro-N-[(5-{4-[(1-methylpiperidin-4-yl)amino]-1-(2,2,2-trifluoroethyl)-1H-indol-2-yl}-1,3,4-thiadiazol-2-yl)methyl]benzamide]	–	* (* = 0 μM ≤ SC150 < 0.1 μM)
CN1CCC(Nc2cccc3c2cc(-c2nnc(CNC(=O)c4ccc(C(=O)O)cc4)s2)n3CC(F)(F)F)CC1 [Compound 54B, 4-{[(5-{4-[(1-methylpiperidin-4-yl)amino]-1-(2,2,2-trifluoroethyl)-1H-indol-2-yl}-1,3,4-thiadiazol-2-yl)methyl]carbamoyl}benzoic acid]	–	** (** = 0.1 μM ≤ SC150 < 0.5 μM)
CC(C)C(=O)NCc1nnc(-c2cc3c(NC4CCN(C)CC4)cccc3n2CC(F)(F)F)s1 [Compound 57B, 2-methyl-N-[(5-{4-[(1-methylpiperidin-4-yl)amino]-1-(2,2,2-trifluoroethyl)-1H-indol-2-yl}-1,3,4-thiadiazol-2-yl)methyl]propanamide]	–	** (** = 0.1 μM ≤ SC150 < 0.5 μM)
CC(=O)NCc1nnc(-c2cc3c(NC4CCN(C)CC4)cccc3n2CC(F)(F)F)s1 [Compound 58B, N-[(5-{4-[(1-methylpiperidin-4-yl)amino]-1-(2,2,2-trifluoroethyl)-1H-indol-2-yl}-1,3,4-thiadiazol-2-yl)methyl]acetamide]	–	** (** = 0.1 μM ≤ SC150 < 0.5 μM)
CN1CCC(Nc2cccc3c2cc(-c2nnc(CNC(=O)Cc4ccccc4)s2)n3CC(F)(F)F)CC1 [Compound 59B, N-[(5-{4-[(1-methylpiperidin-4-yl)amino]-1-(2,2,2-trifluoroethyl)-1H-indol-2-yl}-1,3,4-thiadiazol-2-yl)methyl]-2-phenylacetamide]	–	** (** = 0.1 μM ≤ SC150 < 0.5 μM)
COc1cc(S(C)(=O)=O)ccc1NCc1nnc(-c2cc3c(N[C@H]4CCN(C)C[C@H]4F)cccc3n2CC(F)(F)F)s1 [Compound 61B, N-[(3R,4S)-3-fluoro-1-methylpiperidin-4-yl]-2-(5-{[(4-methanesulfonyl-2-methoxyphenyl)amino]methyl}-1,3,4-thiadiazol-2-yl)-1-(2,2,2-trifluoroethyl)-1H-indol-4-amine]	–	* (* = 0 μM ≤ SC150 < 0.1 μM)
COc1ccc(C(=O)NCc2nnc(-c3cc4c(NC5CCN(C)CC5)cccc4n3CC(F)(F)F)s2)cc1 [Compound 63B, 4-methoxy-N-[(5-{4-[(1-methylpiperidin-4-yl)amino]-1-(2,2,2-trifluoroethyl)-1H-indol-2-yl}-1,3,4-thiadiazol-2-yl)methyl]benzamide]	–	* (* = 0 μM ≤ SC150 < 0.1 μM)
COc1cccc(C(=O)NCc2nnc(-c3cc4c(NC5CCN(C)CC5)cccc4n3CC(F)(F)F)s2)c1 [Compound 64B, 3-methoxy-N-[(5-{4-[(1-methylpiperidin-4-yl)amino]-1-(2,2,2-trifluoroethyl)-1H-indol-2-yl}-1,3,4-thiadiazol-2-yl)methyl]benzamide]	–	* (* = 0 μM ≤ SC150 < 0.1 μM)
CCCC(=O)NCc1nnc(-c2cc3c(NC4CCN(C)CC4)cccc3n2CC(F)(F)F)s1 [Compound 65B, N-[(5-{4-[(1-methylpiperidin-4-yl)amino]-1-(2,2,2-trifluoroethyl)-1H-indol-2-yl}-1,3,4-thiadiazol-2-yl)methyl]butanamide]	–	** (** = 0.1 μM ≤ SC150 < 0.5 μM)
COc1ccccc1C(=O)NCc1nnc(-c2cc3c(NC4CCN(C)CC4)cccc3n2CC(F)(F)F)s1 [Compound 66B, 2-methoxy-N-[(5-{4-[(1-methylpiperidin-4-yl)amino]-1-(2,2,2-trifluoroethyl)-1H-indol-2-yl}-1,3,4-thiadiazol-2-yl)methyl]benzamide]	–	* (* = 0 μM ≤ SC150 < 0.1 μM)
CN1CCC(Nc2cccc3c2cc(-c2nnc(CNC(=O)c4ccc5cn[nH]c5c4)s2)n3CC(F)(F)F)CC1 [Compound 69B, N-[(5-{4-[(1-methylpiperidin-4-yl)amino]-1-(2,2,2-trifluoroethyl)-1H-indol-2-yl}-1,3,4-thiadiazol-2-yl)methyl]-1H-indazole-6-carboxamide]	–	* (* = 0 μM ≤ SC150 < 0.1 μM)

Next, values leading:

SC150 (μM)	Y220C SC150 (μM)	SMILES
+++ (+++ = 5 μM ≤ SC150 < 10 μM)	–	COCC(O)CN1CCC(Nc2cccc3c2cc(-c2ccc4c(C)[nH]nc4c2)n3CC(F)(F)F)CC1 (centres unmarked) [Compound 47A, 1-methoxy-3-(4-{[2-(3-methyl-2H-indazol-6-yl)-1-(2,2,2-trifluoroethyl)-1H-indol-4-yl]amino}piperidin-1-yl)propan-2-ol]
–	* (* = 0 μM ≤ SC150 < 0.1 μM)	CN1CC[C@@H](Nc2cccc3c2cc(-c2nnc(CNC(=O)C4CC4)s2)n3CC(F)(F)F)[C@@H](F)C1 [Compound 47B, N-{[5-(4-{[(3S,4R)-3-fluoro-1-methylpiperidin-4-yl]amino}-1-(2,2,2-trifluoroethyl)-1H-indol-2-yl)-1,3,4-thiadiazol-2-yl]methyl}cyclopropanecarboxamide]
++ (++ = 2 μM ≤ SC150 < 5 μM)	–	COCC(O)CN1CCC(Nc2cccc3c2cc(-c2ccc4c(c2)NC(=O)C4)n3CC(F)(F)F)CC1 (centres unmarked) [Compound 49A, 4-{[1-(2-hydroxy-3-methoxypropyl)piperidin-4-yl]amino}-1-(2,2,2-trifluoroethyl)-2′,3′-dihydro-1H,1′H-[2,6′-biindol]-2′-one]
–	** (** = 0.1 μM ≤ SC150 < 0.5 μM)	CN1CCC(Nc2cccc3c2cc(-c2nnc(CNC(=O)c4ccccc4F)s2)n3CC(F)(F)F)CC1 [Compound 50B, 2-fluoro-N-[(5-{4-[(1-methylpiperidin-4-yl)amino]-1-(2,2,2-trifluoroethyl)-1H-indol-2-yl}-1,3,4-thiadiazol-2-yl)methyl]benzamide]
–	* (* = 0 μM ≤ SC150 < 0.1 μM)	CN1CCC(Nc2cccc3c2cc(-c2nnc(CNC(=O)c4ccc(F)cc4)s2)n3CC(F)(F)F)CC1 [Compound 52B, 4-fluoro-N-[(5-{4-[(1-methylpiperidin-4-yl)amino]-1-(2,2,2-trifluoroethyl)-1H-indol-2-yl}-1,3,4-thiadiazol-2-yl)methyl]benzamide]
–	** (** = 0.1 μM ≤ SC150 < 0.5 μM)	CN1CCC(Nc2cccc3c2cc(-c2nnc(CNC(=O)c4ccc5[nH]ncc5c4)s2)n3CC(F)(F)F)CC1 [Compound 55B, N-[(5-{4-[(1-methylpiperidin-4-yl)amino]-1-(2,2,2-trifluoroethyl)-1H-indol-2-yl}-1,3,4-thiadiazol-2-yl)methyl]-1H-indazole-5-carboxamide]
–	** (** = 0.1 μM ≤ SC150 < 0.5 μM)	CNC(=O)NCc1nnc(-c2cc3c(NC4CCN(C)CC4)cccc3n2CC(F)(F)F)s1 [Compound 56B, 3-methyl-1-[(5-{4-[(1-methylpiperidin-4-yl)amino]-1-(2,2,2-trifluoroethyl)-1H-indol-2-yl}-1,3,4-thiadiazol-2-yl)methyl]urea]
–	** (** = 0.1 μM ≤ SC150 < 0.5 μM)	COCC(=O)NCc1nnc(-c2cc3c(NC4CCN(C)CC4)cccc3n2CC(F)(F)F)s1 [Compound 60B, 2-methoxy-N-[(5-{4-[(1-methylpiperidin-4-yl)amino]-1-(2,2,2-trifluoroethyl)-1H-indol-2-yl}-1,3,4-thiadiazol-2-yl)methyl]acetamide]
–	* (* = 0 μM ≤ SC150 < 0.1 μM)	COc1cc(S(C)(=O)=O)ccc1NCc1nnc(-c2cc3c(N[C@@H]4CCN(C)C[C@@H]4F)cccc3n2CC(F)(F)F)s1 [Compound 62B, N-[(3S,4R)-3-fluoro-1-methylpiperidin-4-yl]-2-(5-{[(4-methanesulfonyl-2-methoxyphenyl)amino]methyl}-1,3,4-thiadiazol-2-yl)-1-(2,2,2-trifluoroethyl)-1H-indol-4-amine]
–	** (** = 0.1 μM ≤ SC150 < 0.5 μM)	CN1CCC(Nc2cccc3c2cc(-c2nnc(CNC(=O)N(C)C)s2)n3CC(F)(F)F)CC1 [Compound 68B, 3,3-dimethyl-1-[(5-{4-[(1-methylpiperidin-4-yl)amino]-1-(2,2,2-trifluoroethyl)-1H-indol-2-yl}-1,3,4-thiadiazol-2-yl)methyl]urea]
–	* (* = 0 μM ≤ SC150 < 0.1 μM)	O=C(NCc1nnc(-c2cc3c(N[C@@H]4CCNC[C@@H]4F)cccc3n2CC(F)(F)F)s1)OCc1ccccc1 [Compound 70B, benzyl N-{[5-(4-{[(3S,4R)-3-fluoropiperidin-4-yl]amino}-1-(2,2,2-trifluoroethyl)-1H-indol-2-yl)-1,3,4-thiadiazol-2-yl]methyl}carbamate]
